In ChEMBL document CHEMBL3039007, “Structure-based identification of OATP1B1/3 inhibitors” (Mol Pharmacol, 2013) one finds residual activity data, which are given here for 42 molecules.

Series [1] has as its target T1, Solute carrier organic anion transporter family member 1B1 (Homo sapiens, UniProt Q9Y6L6).
T1 sequence (Q9Y6L6 whole entry): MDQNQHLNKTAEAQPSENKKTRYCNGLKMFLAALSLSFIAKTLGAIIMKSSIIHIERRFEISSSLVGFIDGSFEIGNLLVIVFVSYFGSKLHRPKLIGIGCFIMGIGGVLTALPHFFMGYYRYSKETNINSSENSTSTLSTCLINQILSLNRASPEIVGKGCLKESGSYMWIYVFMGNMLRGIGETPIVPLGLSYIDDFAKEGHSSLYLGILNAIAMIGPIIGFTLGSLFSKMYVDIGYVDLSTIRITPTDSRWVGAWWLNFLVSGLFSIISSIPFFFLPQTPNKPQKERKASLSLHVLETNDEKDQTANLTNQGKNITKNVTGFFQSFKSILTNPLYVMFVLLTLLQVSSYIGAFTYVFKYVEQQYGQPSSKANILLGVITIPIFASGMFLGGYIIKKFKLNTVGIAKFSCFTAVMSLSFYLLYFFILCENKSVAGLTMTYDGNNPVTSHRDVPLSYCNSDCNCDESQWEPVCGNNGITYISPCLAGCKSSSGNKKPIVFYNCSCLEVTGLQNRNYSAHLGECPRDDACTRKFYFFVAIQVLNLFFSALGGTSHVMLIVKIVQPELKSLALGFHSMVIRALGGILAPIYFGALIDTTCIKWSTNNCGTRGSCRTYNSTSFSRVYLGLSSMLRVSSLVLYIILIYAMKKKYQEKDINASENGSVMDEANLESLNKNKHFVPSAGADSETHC
Particulars: chinese hamster, cho, 10 µM.

Series [2] deals with T2, Solute carrier organic anion transporter family member 1B3 (Homo sapiens, UniProt Q9NPD5).
T2 sequence (Q9NPD5 whole entry): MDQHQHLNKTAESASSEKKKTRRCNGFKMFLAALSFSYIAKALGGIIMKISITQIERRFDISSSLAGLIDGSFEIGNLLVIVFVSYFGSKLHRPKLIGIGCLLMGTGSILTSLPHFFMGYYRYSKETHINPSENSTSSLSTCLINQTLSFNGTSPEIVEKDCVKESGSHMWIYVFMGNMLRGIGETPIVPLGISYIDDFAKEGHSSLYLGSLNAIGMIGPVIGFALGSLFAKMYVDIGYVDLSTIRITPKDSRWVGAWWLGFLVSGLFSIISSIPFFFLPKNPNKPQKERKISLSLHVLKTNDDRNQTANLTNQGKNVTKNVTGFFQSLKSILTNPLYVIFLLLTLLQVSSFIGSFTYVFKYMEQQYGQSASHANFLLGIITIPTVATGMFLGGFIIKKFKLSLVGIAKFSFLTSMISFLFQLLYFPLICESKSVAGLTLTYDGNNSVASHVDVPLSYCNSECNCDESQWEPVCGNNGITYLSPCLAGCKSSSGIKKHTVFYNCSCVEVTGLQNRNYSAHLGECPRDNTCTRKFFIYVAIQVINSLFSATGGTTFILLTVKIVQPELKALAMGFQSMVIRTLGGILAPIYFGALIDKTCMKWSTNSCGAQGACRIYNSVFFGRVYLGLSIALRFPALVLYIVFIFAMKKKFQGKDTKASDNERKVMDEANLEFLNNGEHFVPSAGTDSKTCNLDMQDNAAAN
Particulars: chinese hamster, cho, 10 µM.

Take `CO[C@@]1(NC(=O)Cc2cccs2)C(=O)N2C(C(=O)[O-])=C(COC(N)=O)CS[C@@H]21.[Na+]` [CEFOXITIN SODIUM]: the residual activity was 68.58% in series [1] and 82.79% in series [2].

In the case of `O=C(/C=C/c1ccc(O)c(O)c1)O[C@H](Cc1ccc(O)c(O)c1)C(=O)O` [ROSMARINIC ACID], the residual activity in series [1] is 103.9%; in series [2], 102.5%.

In the case of `COc1ccc(-c2c(OC)c3c(OC)c4c(cc3oc2=O)OC(C)(C)C=C4)cc1` [ROBUSTIC ACID METHYL ETHER], the residual activity in series [1] was determined as 184.1%; in series [2], 140.2%.

Turning to `O=C1c2ccccc2C(=O)c2c1ccc(O)c2O` [ATHRAQUINONES A], the residual activity in series [1] came to 84.81%; in series [2], 93.11%.

`CCC(=O)c1c(O)cc(O)cc1O` [FLOPROPIONE]: the residual activity worked out at 69.54% in series [1] and 107.4% in series [2].

Consider `Nc1ncn([C@@H]2O[C@H](CO)[C@@H](O)[C@H]2O)c(=O)n1` [AZACITIDINE], for which the residual activity was determined as 108.4% in series [1] and 96.87% in series [2].

`O=C(O)[C@H](O)[C@@](O)(Cc1ccc(O)cc1)C(=O)O` [PISCIDIC ACID]: the residual activity in series [1] is on record as 92.25%; in series [2] it was 90.37%.

As for `CC1=CCc2c(cc3oc(C)cc(=O)c3c2O)OC1` [PTAEROXYLIN], the results for the residual activity in series [1] and in series [2] were 104.1% and 109.4%, respectively.

Turning to `CSCC[C@H](N)C(=O)N[C@@H](CC(C)C)C(=O)N[C@@H](Cc1ccccc1)C(=O)OC(C)=O`, the residual activity in series [1] is reported as 102.4%; in series [2], 94.57%.

Regarding `COc1ccc2c(=O)cc(-c3ccccc3OC)oc2c1` [7,2'-DIMETHOXYFLAVONE], the results for the residual activity in series [1] and in series [2] were 95.82% and 110.5%, respectively.

Turning to `CC(=O)O[C@H]1C[C@H](O[C@H]2[C@@H](O)C[C@H](O[C@H]3[C@@H](O)C[C@H](O[C@H]4CC[C@@]5(C)[C@H](CC[C@@H]6[C@@H]5C[C@@H](O)[C@]5(C)[C@@H](C7=CC(=O)OC7)CC[C@]65O)C4)O[C@@H]3C)O[C@@H]2C)O[C@H](C)[C@H]1O[C@@H]1O[C@H](CO)[C@@H](O)[C@H](O)[C@H]1O` [LANATOSIDE C], the residual activity in series [1] worked out at 102.5%; in series [2] it was 86.15%.

As for `CC(N)C(=O)OC(C)(C)Cc1ccc(Cl)cc1` (centres undefined) [ALAPROCLATE], the residual activity in series [1] was found to be 84.52%; in series [2], 98.54%.

As for `O=c1ccc2cc(O)c(O)cc2o1` [ESCULETIN], the results for the residual activity in series [1] and in series [2] were 111.1% and 105.3%, respectively.

Take `c1ccc2c(c1)sc1ccccc12` [DIBENZOTHIOPHENE]: the residual activity in series [1] came to 114.7%; in series [2], 93.83%.

On to `C[N+](C)(C)CCOC(N)=O.[Cl-]` [CARBACHOL], for which the residual activity is reported as 120.9% in series [1] and 105.7% in series [2].

`COC(=O)[C@@H]1OC(=O)[C@H]2O[C@]23[C@@]2(C)[C@H](CC[C@@]13C)[C@@]1(C)[C@@H](OC(C)=O)C[C@@H](OC(C)=O)C(C)(C)[C@@H]1C[C@@H]2O`: the residual activity in series [1] was 66.58%; in series [2], 72.87%.

Turning to `O=C(O)c1cc(-c2ccc(F)cc2F)ccc1O` [DIFLUNISAL], the residual activity in series [1] is on record as 201%; in series [2], 87.47%.

For `COc1ccc(-c2cc(C(F)F)nn2-c2ccc(S(N)(=O)=O)cc2)cc1F` [DERACOXIB], the results for the residual activity in series [1] and in series [2] were 127.8% and 98.95%, respectively.

Regarding `O=C(O)c1c2ccccc2cc2ccccc12` [ANTHRACENE-9-CARBOXYLIC ACID], the residual activity in series [1] stood at 95.94%; in series [2], 87.88%.

Consider `CCCCC(=O)Oc1ccccc1C(=O)O` [VALERYL SALYCILATE], for which the values for the residual activity in series [1] and in series [2] were 78.97% and 92.91%, respectively.

Take `C=CC(C)(O)CC/C=C(\C)CCC=C(C)C` (centres undefined) [NEROLIDOL]: the residual activity in series [1] is listed as 147.7%; in series [2] it was 131.1%.

Take `NCC(O)CC(=O)O` (stereo not drawn) [GAMMA-AMINO-BETA-HYDROXYBUTYRIC ACID]: the figures for the residual activity in series [1] and in series [2] were 120.5% and 106.5%, respectively.

`CCCCCC1C(=O)CCC1CC(=O)OC` (centres undefined) [DIHYDROJASMONIC ACID, METHYL ESTER]: the residual activity in series [1] was 109.5%; in series [2] it was 82.72%.

In the case of `O=C(O)c1cc(O)c2cccc(O)c2n1` [XANTHURENATE], the residual activity is 115.8% in series [1] and 99.4% in series [2].

Consider `COc1ccc(-c2cc(=O)c3ccccc3o2)cc1OC` [3',4'-DIMETHOXYFLAVONE], for which the residual activity in series [1] amounted to 187.6%; in series [2] it was 129.7%.

Take `COC1=C[C@]23CCCN2CCc2cc4c(cc2[C@@H]3[C@@H]1O)OCO4` [CEPHALOTAXINE]: the results for the residual activity in series [1] and in series [2] were 77.26% and 77.89%, respectively.

With `Nc1ncnc2nc[nH]c12` [ADENINE], the residual activity was 90.14% in series [1] and 81.98% in series [2].

Regarding `O=C(O)c1cc(O)ccc1O` [GENTISIC ACID], the residual activity turned out to be 84.57% in series [1] and 104% in series [2].

As to `CN(C)CCC(c1ccc(Br)cc1)c1ccccn1.O=C(O)/C=C\C(=O)O` (centres undefined) [BROMPHENIRAMINE MALEATE], the residual activity in series [1] is reported as 88.52%; in series [2] it was 90.7%.

Consider `Cc1ccc(N(CC2=NCCN2)c2cccc(O)c2)cc1.Cl` [PHENTOLAMINE HYDROCHLORIDE], for which the residual activity in series [1] was 85.39%; in series [2], 86.01%.

For the molecule `O=C(NC(=O)c1c(F)cccc1F)Nc1cc(Cl)c(OC(F)(F)C(F)C(F)(F)F)cc1Cl` (centres undefined) [LUFENURON], the residual activity in series [1] was determined as 102.8%; in series [2], 97.09%.

With `c1ccc(-c2ccc(C(c3ccccc3)n3ccnc3)cc2)cc1` (centres undefined) [BIFONAZOLE], the residual activity in series [1] was 121.1%; in series [2], 115.7%.

With `CC(=O)[C@H]1CC[C@H]2[C@@H]3CC(=O)C4=CC(=O)CC[C@]4(C)[C@H]3CC[C@]12C`, the results for the residual activity in series [1] and in series [2] were 38.54% and 75.51%, respectively.

Take `Oc1ccc2c(c1)OC[C@]1(O)Cc3cc(O)c(O)cc3[C@H]21` [BRAZILIN]: the residual activity in series [1] was 117.2%; in series [2] it was 101.4%.

Consider `C=C1c2cccc(O)c2C(=O)C2=C(O)[C@]3(O)C(=O)C(C(N)=O)=C(O)[C@@H](N(C)C)[C@@H]3[C@@H](O)[C@H]12.Cl` [METHACYCLINE HYDROCHLORIDE], for which the residual activity came to 110.8% in series [1] and 110.7% in series [2].

On to `O=C(O)c1cc2cc(F)ccc2[nH]1` [5-FLUOROINDOLE-2-CARBOXYLIC ACID], for which the residual activity in series [1] came out at 108.9%; in series [2], 103.9%.

For the molecule `CN(C)C(=O)Oc1cccc([N+](C)(C)C)c1.[Br-]` [NEOSTIGMINE BROMIDE], the residual activity worked out at 95.12% in series [1] and 101.1% in series [2].

`Cc1c(NC(C)C)c(=O)n(-c2ccccc2)n1C` [RAMIFENAZONE]: the residual activity in series [1] is recorded as 105.5%; in series [2] it was 89.79%.

`CC(C)(S)[C@@H](N)C(=O)O` [PENICILLAMINE]: the residual activity in series [1] is reported as 100.4%; in series [2] it was 124%.

Regarding `CCN(CCCc1ccccc1)CCCc1ccccc1.O=C(O)CC(O)(CC(=O)O)C(=O)O` [ALVERINE CITRATE], the residual activity came to 48.34% in series [1] and 74.4% in series [2].

As to `C=C(C)[C@H]1Cc2c(ccc3c2O[C@@H]2COc4cc(OC)c(OC)cc4[C@@H]2C3=O)O1` [ROTENONE], the values for the residual activity in series [1] and in series [2] were 23.22% and 43.86%, respectively.

For the molecule `O=C1C(O)=C(O)C(=O)C(O)=C1O` [TETROQUINONE], the residual activity in series [1] is on record as 121.2%; in series [2], 83.15%.
